A short description of the data set: solvent given as SMILES.

Each structure is given as a SMILES string.

Where the note is “in ClCCl”, `CC1=C(c2ccccc2)C(C)=[N+]2C1=C(c1c(-c3ccccn3)nc3ccccn13)c1c(C)c(-c3ccccc3)c(C)n1[B-]2(F)F` returned a fluorescence lifetime of 3.4 ns.
Regarding `CCC1(CC)c2ccccc2-c2c1c1c(c3c2C(CC)(CC)c2cc(N(c4ccccc4)c4ccccc4)ccc2-3)C(CC)(CC)c2ccccc2-1`, the fluorescence lifetime (in C1CCOC1) amounted to 1.6 ns.
Regarding `CC(C)(C)C1Nc2ccccc2C(=O)N1Cc1ccccc1` (stereo not given), the fluorescence lifetime is, setting by setting: (in CC#N) 2.43 ns; (in CCCCCCCCCCCCCCCC) 4.97 ns; (in CO) 5.24 ns; (in ClC(Cl)Cl) 5.86 ns; (in c1ccccc1) 5.11 ns.
For `CCCCC(CC)Cn1c2cc(-c3ccc(N(c4ccccc4)c4ccccc4)cc3)c(C#N)cc2c2cc(C#N)c(-c3ccc(N(c4ccccc4)c4ccccc4)cc3)cc21` (stereo not given), the fluorescence lifetime (in ClCCl) came out at 3.23 ns.
As for `CCN(CC)c1ccc2c(-c3ccccc3C(=O)O)c3c([o+]c2c1)/C(=C/c1ccc(N2CCCC2)s1)CCC3`, the fluorescence lifetime (in ClCCl) stood at 0.16 ns.
In turn, `CC1=CC(C)=[N+]2C1=C(c1ccc(I)cc1)c1c(C)cc(C)n1[B-]2(OCc1ccccc1)OCc1ccccc1` showed a fluorescence lifetime (in ClC(Cl)Cl) of 3.94 ns.
`[NH3+]C1(c2ccc3cc(O)ccc3c2)C2CC3CC(C2)CC1C3` (stereo not given) gave a fluorescence lifetime (in CC#N) of 10.3 ns.
Consider `Cc1csc2[n+]1[B-](F)(F)OC(c1ccc(N(C)C)cc1)=N2`, for which the fluorescence lifetime (in C1CCOC1) is 2.24 ns.
`CCC(CC)COC1=CC2=C3c4cc(OCC(CC)CC)c(-c5ccccc5)n4[B-](F)(F)[n+]4nnn(c43)[B-](F)(F)[N+]2=C1c1ccccc1`: the fluorescence lifetime (in C1CCOC1) stood at 1.01 ns and the fluorescence lifetime (in ClCCl) came to 0.95 ns.
As for `N#Cc1ccc(/C2=C3N=C(C(c4ccccc4)=C/3c3ccccc3)/C(c3ccc(C#N)cc3)=c3\[nH]/c(c(-c4ccccc4)c3-c3ccccc3)=C(/c3ccc(C#N)cc3)C3=N/C(=C(/c4ccc(C#N)cc4)c4[nH]c2c(-c2ccccc2)c4-c2ccccc2)C(c2ccccc2)=C3c2ccccc2)cc1`, the fluorescence lifetime (in ClCCl) was found to be 0.416 ns.
For the compound `Nc1ccc2c(c1)C(=O)c1ccccc1-2`, the fluorescence lifetime reads like this: (in C1CCCCC1) 4 ns; (in c1ccccc1) 0.84 ns.
On to `CCCCOc1ccc(-c2oc3c(-c4ccc(OCCCC)cc4)c4n(c3c2-c2ccc(OCCCC)cc2)[B-](F)(F)[N+]2=Cc3c(-c5ccc(OCCCC)cc5)c5oc(-c6ccc(OCCCC)cc6)c(-c6ccc(OCCCC)cc6)c5n3[B-](F)(F)[N+]2=C4)cc1`, for which, where the note is “in ClCCl”, the fluorescence lifetime was found to be 2.56 ns.
`CCCCCCN1C(=O)c2cccc3c(-c4ccc(OC)s4)ccc(c23)C1=O`: for the setting “in ClC(Cl)Cl”, the fluorescence lifetime came to 3.88 ns.
Take `O=[N+]([O-])c1ccc(O)c(-c2nc3c(c4c2-c2ccccc2CC4)-c2ccccc2CC3)c1`: the fluorescence lifetime (in ClCCl) was 0.45 ns.
Take `CC\C=C/C=C/C=C/C=C\CCCCCCCC(=O)O`: the fluorescence lifetime by setting is: (in C1COCCO1) 3.2 ns; (in CCCCCC) 4.5 ns; (in CCCCCCCCCC) 5.2 ns; (in CCCCO) 2.5 ns; (in CCOCC) 5.1 ns; (in CO) 1.3 ns. The compound further showed a fluorescence lifetime (in ClC(Cl)Cl) of 1.5 ns.
For `N=c1oc2cccc3c4c(-c5ccccc5)oc5cccc(c(c1-c1ccccc1)c23)c54`, the fluorescence lifetime (in ClC(Cl)Cl) amounted to 2.6 ns.
As to `Cc1ccc(C2CC(c3ccc(O)cc3)=NN2c2ccc(S(N)(=O)=O)cc2)cc1` (stereo not given), the fluorescence lifetime by setting is: (in C1CCOC1) 2.4 ns; (in C1COCCO1) 2.41 ns; (in CC#N) 2.32 ns; (in CC(C)O) 2.11 ns; (in CCO) 2.04 ns; (in CCOC(C)=O) 2.41 ns. Moreover, the fluorescence lifetime (in CN(C)C=O) was determined as 2.59 ns, the fluorescence lifetime (in CO) is 1.66 ns, the fluorescence lifetime (in CS(C)=O) turned out to be 2.56 ns and the fluorescence lifetime (in O) amounted to 3.35 ns.
As for `Cc1ccc(C2=C3C=CC(/C=C/c4ccccc4)=[N+]3[B-](F)(F)n3c(/C=C/c4ccccc4)ccc32)cc1`, the fluorescence lifetime (in C1CCCCC1) is 4.37 ns; the fluorescence lifetime (in C1CCOC1) came to 4.09 ns; the fluorescence lifetime (in C1COCCO1) was found to be 4.31 ns; the fluorescence lifetime (in CCOC(C)=O) worked out at 4.77 ns; the fluorescence lifetime (in CO) was determined as 4.54 ns; the fluorescence lifetime (in Cc1ccccc1) amounted to 4.48 ns. The same compound returned a fluorescence lifetime (in ClC(Cl)Cl) of 4.63 ns.
`CC(C)(C)NC1=CC2=c3cc(NC(C)(C)C)c4nc(C(F)(F)C(F)(F)C(F)(F)F)nc5c(NC(C)(C)C)cc(c3c54)C3=CC(NC(C)(C)C)=C4N=C(C(F)(F)C(F)(F)C(F)(F)F)N=C1C4C32` (stereo not given): the fluorescence lifetime (in C1CCOC1) was 6.1 ns.
Consider `Cn1c(=O)c(/N=N/c2ccc(Nc3ccc([N+](=O)[O-])cc3S(=O)(=O)O)cc2)c(O)c2ccccc21`, for which the fluorescence lifetime (in CS(C)=O) came out at 0.03 ns.
`CCCCCCCCn1c(=O)c2cc3c(C#Cc4ccc(N(c5ccccc5)c5ccccc5)cc4)c4cc5c(=O)n(CCCCCCCC)c(=O)c5cc4c(C#Cc4ccc(N(c5ccccc5)c5ccccc5)cc4)c3cc2c1=O`: the fluorescence lifetime (in ClC(Cl)Cl) was found to be 3.4 ns.
In the case of `O=c1cccc2n1C[C@@H]1CNC[C@H]2C1`, the fluorescence lifetime (in CC#N) turned out to be 0.289 ns.
Turning to `c1ccc2c(c1)[nH]c1ccccc12`, the fluorescence lifetime is 15.1 ns (in CC#N), 14.2 ns (in CCCCCC) and 16.1 ns (in CCO).
For the compound `N#Cc1ccc(N)cc1`, the fluorescence lifetime came to 5.6 ns (in C1CCCCC1); 2.6 ns (in CC#N); 3.2 ns (in CCCCCC); 0.68 ns (in CCO); 0.067 ns (in O); 0.13 ns (in OCC(F)(F)F).
As to `N#Cc1c(-n2c3ccc(I)cc3c3cc(I)ccc32)c(-n2c3ccc(I)cc3c3cc(I)ccc32)c(C#N)c(-n2c3ccc(I)cc3c3cc(I)ccc32)c1-n1c2ccc(I)cc2c2cc(I)ccc21`, the fluorescence lifetime (in Cc1ccccc1) is 0.1 ns.
Compound `c1ccc(N2N=C(c3cccc4ccccc34)CC2c2ccc3ccc4cccc5ccc2c3c45)cc1` (stereo not given) gave a fluorescence lifetime (in ClCCl) of 2.01 ns.
For the compound `CC1(C)CC(/N=C/c2ccc3ccc4cccc5ccc2c3c45)CC(C)(C)N1[O]`, the fluorescence lifetime stood at 8.3 ns (in C1CCCCC1) and 2.1 ns (in CO).
As to `CN1CCN(CCCN2c3ccccc3Sc3ccc(Cl)cc32)CC1`, the fluorescence lifetime by setting is: (in CC#N) 0.91 ns; (in CO) 0.89 ns.
As to `COC(=O)c1cc(=O)n(Cc2ccccc2)c2cc(-c3ccc(N(C)C)cc3)sc12`, the fluorescence lifetime (in ClCCl) amounted to 1.86 ns.
With `F[B-]1(F)OC(c2ccc3c(c2)Cc2ccccc2-3)=CC(c2ccccc2)=[O+]1`, for the setting “in CC#N”, the fluorescence lifetime came to 2.6 ns.
Take `CC1=[N+]2C(=C(c3ccc(N(c4ccccc4)c4ccccc4)cc3)c3ccc(C)n3[B-]2(F)F)C=C1c1cc2n(c1)[B-](F)(F)[N+]1=CC=CC1=C2c1c(C)cc(C)cc1C`: the fluorescence lifetime came out at 2.6 ns (in C1CCCCC1) and 0.72 ns (in CCOC(C)=O).
`c1ccc2c(c1)ccc1ccc3ccc4ccccc4c3c12` had a fluorescence lifetime (in ClC(Cl)Cl) of 26 ns.
In turn, `N#Cc1c(-n2c3ccccc3c3ccccc32)c(-n2c3ccccc3c3ccccc32)c(C#N)c(-n2c3ccccc3c3ccccc32)c1-n1c2ccccc2c2ccccc21` had a fluorescence lifetime (in Cc1ccccc1) of 8.8 ns.
Take `NS(=O)(=O)c1ccc(N2N=C(c3ccc(O)cc3)CC2c2ccc(Cl)cc2)cc1` (stereo not given): the fluorescence lifetime was 2.32 ns (in C1CCOC1); 2.29 ns (in C1COCCO1); 2.29 ns (in CC#N); 2 ns (in CC(C)O); 1.88 ns (in CCO); 2.34 ns (in CCOC(C)=O). This compound showed a fluorescence lifetime (in CN(C)C=O) of 2.35 ns, a fluorescence lifetime (in CO) of 1.68 ns, a fluorescence lifetime (in CS(C)=O) of 2.49 ns and a fluorescence lifetime (in O) of 3.2 ns.
Compound `COC(=O)C(NC(=O)OC(C)(C)C)c1ccc2oc(-c3cc(OC)ccc3OC)nc2c1` (stereo not given) returned a fluorescence lifetime (in CC1CCCCC1) of 1.93 ns, a fluorescence lifetime (in CC#N) of 2.03 ns and a fluorescence lifetime (in CO) of 2.03 ns.
In the case of `CCn1c(=O)nc2n(C)c3cc(C)ccc3nc-2c1=O`, the fluorescence lifetime is, setting by setting: (in CC#N) 7 ns; (in CO) 6.3 ns; (in ClCCCl) 6.5 ns.
Consider `CC(C)(C)c1cc(-c2cc3c(cc(-c4cc(C(C)(C)C)cc(C(C)(C)C)c4)n3-c3ccc(C(=C(c4ccccc4)c4ccccc4)c4ccccc4)cc3)n2-c2ccc(C(=C(c3ccccc3)c3ccccc3)c3ccccc3)cc2)cc(C(C)(C)C)c1`, for which the fluorescence lifetime (in ClCCl) was found to be 1.6 ns.
With `c1ccc(N(c2ccccc2)c2ccc(-c3ccc(-c4ccc(-c5ccc(-c6ccc(N(c7ccccc7)c7ccccc7)cc6)s5)c5nsnc45)s3)cc2)cc1`, the fluorescence lifetime (in ClC(Cl)Cl) came to 5.13 ns.
Regarding `CCCCCCCCCCCCOc1cc2cc(N(C)C)ccc2cc1C=O`, the fluorescence lifetime (in ClCCl) was determined as 4.5 ns.
Take `Cn1cccc1-c1cc(C#N)ccc1C#N`: the fluorescence lifetime came out at 13.1 ns (in C1CCOC1); 2.8 ns (in CC#N); 7.5 ns (in CCCCCC); 11.4 ns (in CCCCOCCCC); 12.6 ns (in CCOCC).
The compound `C(=C\c1cc(-c2ccccc2)c(/C=C/c2ccc(N(c3ccccc3)c3ccccc3)cc2)cc1-c1ccccc1)/c1ccc(N(c2ccccc2)c2ccccc2)cc1` had a fluorescence lifetime (in ClCCl) of 1.29 ns.
Turning to `CCCCCCN1C(=O)c2cccc3cc(/N=C\c4c[nH]c5c4ccc4ccccc45)cc(c23)C1=O`, the fluorescence lifetime (in ClC(Cl)Cl) was 11.6 ns.
`COc1ccc2c(c1)-c1cc(OC)ccc1C2=O`: the fluorescence lifetime came out at 1.8 ns (in C1CCCCC1), 15.7 ns (in CC#N) and 0.8 ns (in CCO).
For `Nc1cccc2cn[nH]c12`, the fluorescence lifetime (in CC#N) was determined as 4.63 ns, the fluorescence lifetime (in CO) was found to be 1.69 ns and the fluorescence lifetime (in O) is 1.74 ns.
With `Cc1ccc(-c2cc(-c3ccccc3)c3c(N)nc(N4CCCC4)c(C#N)c3n2)cc1`, the fluorescence lifetime by setting is: (in CC#N) 10.3 ns; (in CC(C)=O) 9.9 ns; (in CC(C)O) 10.4 ns; (in CO) 8.5 ns; (in ClC(Cl)Cl) 13.1 ns; (in ClCCl) 13.1 ns. Where the note is “in c1ccccc1”, the fluorescence lifetime is 12.6 ns.
Compound `Cc1ccc2cc(C)ccc2c1` displayed a fluorescence lifetime (in C1CCCCC1) of 64 ns.
On to `CCOc1ccc(/C=C/C=C/C=C/c2ccc([N+](=O)[O-])cc2)cc1`, for which the fluorescence lifetime (in Cc1ccccc1) was determined as 1.5 ns.
In the case of `N#Cc1cc2ccccc2[nH]1`, the fluorescence lifetime reads like this: (in C1CCOC1) 2.9 ns; (in C1COCCO1) 2.9 ns; (in CC#N) 0.9 ns; (in CS(C)=O) 0.4 ns.

Source of the values: the Deep4Chem optical property database.
